According to the NIST ThermoML archive (doi:10.1021/je800984q):

Tests used:
[1] = Liquid; for viscosity / mass density: 298.15 K, 101 kPa; for viscosity: Capillary tube (Ostwald / Ubbelohde) method; for mass density: Vibrating tube method
[2] = xn = mol fraction of the nth substance listed; conditions: 298.15 K, 101 kPa, Liquid; for viscosity: Capillary tube (Ostwald / Ubbelohde) method; for mass density: Vibrating tube method

CCOC(=O)OCC [diethyl carbonate]
[1]
Conditions	mass density [kg/m3]	viscosity [mPa·s]
–	969	0.764

[1]
Conditions	vapor or sublimation pressure [kPa]
343.77 K	13.8
351.67 K	19.3
355.63 K	22.7
358.29 K	26
363.84 K	31.3
366.98 K	35.2
369.75 K	39.1
372.28 K	42.8
374.61 K	46.5
377.05 K	50.5
379.59 K	55
381.49 K	58.8
383.37 K	63.1
383.57 K	63.5
386.18 K	68.5
387.61 K	72.8
390.35 K	78.5
392.39 K	84
393.93 K	88.2
395.72 K	93.4
398.28 K	101.5

CCOC(=O)OCC [diethyl carbonate] + C1CC2C3CCC(C3)C2C1
[2], x1 = 1
Conditions	mass density [kg/m3]	viscosity [mPa·s]
–	969	0.764

C1CC2C3CCC(C3)C2C1 (stereo not given) [tricyclo[5.2.1.0(2,6)]decane]
[1]
Conditions	mass density [kg/m3]	viscosity [mPa·s]
–	931.4	2.739

[1]
Conditions	vapor or sublimation pressure [kPa]
393.98 K	15
396.02 K	16.6
401.42 K	20.6
413.88 K	30.3
418.34 K	34.8
426.86 K	44.9
431.22 K	50.7
434.56 K	55.8
436.68 K	59.2
439.31 K	63.2
441.13 K	66.6
442.7 K	69.5
442.81 K	69.8
444.37 K	72.9
445.73 K	75.1
446.13 K	75.9
450.08 K	83.9
457.66 K	101.1

C1CC2C3CCC(C3)C2C1 (stereo not given) [tricyclo[5.2.1.0(2,6)]decane] + CCOC(=O)OCC
[2]
Conditions	mass density [kg/m3]	viscosity [mPa·s]
x2 = 0	931.4	2.739
x2 = 0.1141	933.1	2.14
x2 = 0.2235	935.3	1.757
x2 = 0.3303	938.1	1.496
x2 = 0.4355	941.3	1.292
x2 = 0.536	944.8	1.149
x2 = 0.6336	948.8	1.026
x2 = 0.7288	953.4	0.938
x2 = 0.8207	958.2	0.861
x2 = 0.9109	963.5	0.814
